In patent publication US20030104079A1, “Skin tissue regeneration promoters comprising ginsenoside Rb1” (Japan Science and Technology Corporation, Japan, priority 2000, published 2003):

Tests used:
[1] = intraperitoneally administered; Kaku et al. 1975; cited from earlier work
cerebral infarct lesion = test system: cerebral infarct lesion; design: therapeutic effect for cerebral apoplexy and cerebral infarction: dose or concentration left out as unconfirmed; details: cited from earlier work
open wound of skin = test: Open wound healing by intravenous preinfusion before punch biopsy; assay type: in vivo, Wistar rats
Procedure: Then, we (the present inventors) have examined whether intravenous administration of ginsenoside Rb1 before preparation of open wound of skin can promote regeneration and/or reconstruction of the skin tissue. For that purpose, ginsenoside Rb1 (12 μg) dissolved in physiological saline was intravenously administered once into male Wistar rats (body weight about 300 g), under inhalation anesthesia, subsequently, continuous intravenous infusion of ginsenoside Rb1 (12 μg/day) was conducted for 4 days by using an Alza osmotic minipump. Thereafter, the punch biopsy with diameter 6 mm was performed in the dorsal skin region of animals under inhalation anesthesia to make open wound, and simultaneously, ginsenoside Rb1 was continuously infused intravenously for 3 days.
An equal amount of physiological saline was administered intravenously in the control animals, for which the same open wound was prepared to leave the animals as they were.
On day 2 after finishing continuous intravenous administration of ginsenoside Rb1 or physiological saline (i.e. on day 5 after preparation of the open wound), the animals were anesthetized with pentobarbital and fixed transcardially with perfusion of 0.1 M phosphate buffer containing 4% paraformaldehyde. Thereafter, the skin tissue including the open wound was dissected out, post-fixed and embedded in paraffin according to the conventional method. Paraffin sections 5 μm thick were cut and stained with hematoxylin-eosin (HE). FIG. 3 is a photograph in place of drawing. […] “i” indicates incrustation or eschar, “ep” indicates stratified squamous epithelium of epidermis, and “by” indicates blood vessel.
Intravenous administration of physiological saline solution containing ginsenoside Rb1 (12 μg) was conducted once in male Wistar rats weighing about 300 g under inhalation anesthesia, subsequently, ginsenoside Rb1 was continuously infused intravenously for 4 days through an Alza osmotic minipump at a dose of 12 μg/day. […]

[2] = Observation of administered animals for side effects; assay type: in vivo, rats; details: present experiments, animals carefully observed
Source text: The amount of administration of ginsenoside Rb1, which is used as the preparation(s) for external or topical application to skin or the preparation(s) for external or topical application to mucosa, is far smaller than the amount of intravenous administration.
Actually, as indicated in PCT/JP00/04102 (Brain cell or nerve cell protecting agents comprising ginseng), as far as directing treatment or therapy of cerebral infarction by continuous intravenous administration in a dose of […] (weighing 300 g), dihydroginsenoside Rb1 is thought to be a quite safe pharmaceutical composition. The amount of administration of ginsenoside Rb1, which is used as the preparation(s) for external or topical application to skin or the preparation(s) for external or topical application to mucosa, is far smaller than the amount of intravenous administration.

Bcl-xL gene = details: continuous intravenous administration 60 μg/day; cited from earlier work
skin fibroblast = details: extracellular concentration 10 μg/ml; cited from earlier work

Question: Which LD50 [1] does the source give for `CC(C)=CCC[C@](C)(O[C@@H]1O[C@H](CO[C@@H]2O[C@H](CO)[C@@H](O)[C@H](O)[C@H]2O)[C@@H](O)[C@H](O)[C@H]1O)[C@H]1CC[C@]2(C)[C@@H]1[C@H](O)C[C@@H]1[C@@]3(C)CC[C@H](O[C@@H]4O[C@H](CO)[C@@H](O)[C@H](O)[C@H]4O[C@@H]4O[C@H](CO)[C@@H](O)[C@H](O)[C@H]4O)C(C)(C)[C@@H]3CC[C@]12C` [ginsenoside Rb1] here?
Answer: Its LD50 is 1110 mg/kg.

Question: What about the “therapeutic effect for cerebral infarction and cerebral apoplexy” value (cerebral infarct lesion; continuous intravenous administration 6 μg/day) of the same molecule?
Answer: The value was “superior therapeutic effect”.

Question: And the “therapeutic effect for cerebral apoplexy and cerebral infarction” value (cerebral infarct lesion; continuous intravenous administration)?
Answer: The value was “superior therapeutic effect”.

Question: And the “volume of cerebral infarct lesion” value (cerebral infarct lesion; intravenous continuous administration of low dosages, JP Appln. No. Hei 10-365560)?
Answer: Its value is “about ¼”.

Question: And the “regeneration, generation and reconstruction of ruptured and excised blood vessels (FIG. 3)” value (open wound of skin; 12 μg/day iv 4 days before and 3 days after open wound, day 5 after open wound)?
Answer: Its value is “facilitated”.

Question: And the “regeneration and reconstruction of skin tissue (FIG. 3)” value (open wound of skin; 12 μg/day iv 4 days before and 3 days after open wound, day 5 after open wound, vs physiological saline)?
Answer: Its value is “regeneration and reconstruction of skin tissue were obviously promoted”.

Question: What about the “effect on healthy tissues, ginsenoside Rb1-administered vs physiological saline-administered case” value (open wound of skin; continuous intravenous administration of low dosages) of the same molecule?
Answer: Its value is “no clear difference was observed”.

Question: And the “side effect in administered animals” value [2]?
Answer: The value was “no side effect or ill effect was noted”.

Question: And the “expression of cell death-suppressing factor Bcl-xL gene in brain and nervous tissues” value (Bcl-xL gene)?
Answer: The value was “caused an increase in the expression”.

Question: What about the production of elastin (skin fibroblast) of the same molecule?
Answer: The production of elastin was “can promote production of elastin in the skin fibroblast”.
